Assay results taken from patent US6172061A, “Pharmaceutical composition for antagonizing CCR5 comprising anilide derivative” (Takeda Chemical Industries, Ltd., priority 1997, dated 2001).

What was measured:
human CCR5 = biological target: T1, human CCR5 (Homo sapiens, UniProt P51681); assay: inhibition of [^125 I]-RANTES binding to CHO/CCR5 cells (CCR5 antagonistic activity); conditions: Test Compound 1 μM, 100 pM [^125 I]-RANTES, room temperature 30 minutes; for inhibition at 1 µM: read-out: Inhibition Rate (%) to CCR5 binding
T1 construct: expressed in transfected cells; host or cells: CHO-K1 (plasmid pCKR5 in pcDNA3.1, geneticin-selected CHO/CCR5 cells)
Experimental: Cloning of CCR5 gene was carried out by PCR (polymerase chain reaction) from human spleen cDNA. With using 0.5 ng of spleen cDNA (Toyobo, QUICK-Clone cDNA) as template, PCR was performed in DNA Thermal Cycler 480 (Perkin-Elmer) (reaction conditions: 30 cycles of 95° C. for 1 minute, 60° C. for 1 minute, and 75° C. for 5 minutes) by adding primer set, 5'-CAGGATCCGATG […]-3' (25 pmol) and 5'-TCTAGATCACAAGCC CACAGATATTTCCTGCTCC-3' (25 pmol), which were designed referring to nucleotide sequence of CCR5 gene reported by Samson et al. (Biochemistry, 35(11), 3362-3367 (1996)) and by using TaKaRa EX Taq (Takara Shuzo). The resultant PCR product was subjected to agarose gel electrophoresis to collect about 1.0 kb DNA fragment, which was subjected to Original TA Cloning Kit (Funakoshi) to carry out cloning of CCR5 gene.
The plasmid obtained in the above (1) was digested with restriction enzymes XbaI (Takara Shuzo) and BamHI (Takara Shuzo) and subjected to agarose gel electrophoresis to collect about 1.0 kb DNA fragment. The DNA fragment was mixed with plasmid pcDNA3.1 (Funakoshi) for expression in animal cells, said plasmid being digested with XbaI and BamHI, and they were ligated with DNA Ligation Kit Ver.2 (Takara Shuzo). The resulting plasmid was subjected to transformation of competent cell of E. coli JM109 (Takara Shuzo) to obtain plasmid pCKR^5.
CHO-K1 cells were grown in 750 ml of tissue culture flask (Becton Dickinson) using Ham's F12 medium (Nihon Pharmaceutical) containing 10% fetal calf serum (Life Tech Oriental) and took off with 0.5 g/L trypsin-0.2 g/L EDTA (Life Tech Oriental). The cells were washed with PBS (Life Tech Oriental), centrifuged (1000 rpm, 5 minutes), and suspended in PBS. With using Gene Pulser (Bio-Rad Laboratories), DNA was introduced into the cells under the conditions shown below. That is, to the cuvette of 0.4 cm gap were added 8×10^6 cells and 10 μg of plasmid pCKR^5 for expression of human CCR5, and electroporation was carried out under 0.25 kV of voltage and 960 μF of capacitance. The cells were transferred into Ham's F12 medium (Nihon Pharmaceutical) containing 10% fetal calf serum, and cultivated for 24 hours. The cells were again took off and centrifuged, and suspended in Ham's F12 medium (Nihon Pharmaceutical) containing 10% fetal calf serum and 500 μg/ml of geneticin (Life Tech Oriental). The suspension was diluted to give 10^4 cells/ml of the suspension, which was inoculated on 96 well plate (Becton Dickinson) to give geneticin resistant cells. The resulting geneticin resistant cells were cultivated in 96 well plate (Becton Dickinson), and cells expressing CCR5 were selected from the geneticin resistant cells. That is, in assay buffer (Ham's F12 medium containing 0.5% BSA and 20 mM HEPES (Wako Pure Chemical, pH7.2) to which was added 200 pM of [^125 I]-RANTES (Amersham) as ligand, binding reaction as carried out at room temperature for 40 minutes, and the buffer was washed with cooled PBS. To the buffer was added 50 μl/well of 1M NaOH, and the mixture was stirred. Radioactivity was determined with γ-counter to select CHO/CCR5 cells which specifically bind to the ligand.
The CHO/CCR5 were inoculated on 96 well microplate (5×10^4 cells/well) and cultivated for 24 hours. The medium was removed by means of suction, and to each well was added assay buffer containing Test Compound (1 μM) and then 100 pM of [^125 I]-RANTES (Amersham) as ligand. Binding assay was carried out at room temperature for 30 minutes, and assay buffer was removed by means of suction. Each well was washed twice with cooled PBS, and 200 μl of Microscint-20 (Packard Instrument, Inc.) was added to each well. Radio-activity was determined with Top-Count Micro Scintillation Counter (Packard Instrument, Inc.).
According to the method described above, inhibition rate of Test Compound (whose number is referred to in the following Examples) to CCR5 binding.

HIV-1 [1] = assay: Inhibitory Effect on HIV-1 Infection to Human PBMC; type: cell-based, HIV-1 BA-L; conditions: 7 days, p24 antigen ELISA
Experimental: From normal person human peripheral blood mononuclear cells (PBMC) were separated, and the cells were stimulated with 10 μg/ml of PHA (Phytohemaglutinin) and 20U/ml of interleukin-2 (IL-2) for 3 days. The cells were suspended in RPMI-1640 medium containing 20% serum to prepare 1×10^6 /ml suspension. To the suspension were infected HIV-1 BA-L cells (20 ng as an amount of p24 antigen), and viruses were absorbed at 37° C. for 2 hours. The cells were washed and suspended in RPMI-1640 medium containing 20% serum and IL-2 20 U/ml to prepare 1×10^5 /ml suspension. To the PBMC suspension was added the same amount of a solution which contains 2.0 μM of Test Compound 96 or 0.32 μM of Test Compound 248, and the cells were cultivated at 37° C. for 7 days in carbon dioxide gas incubator. The amount of p24 antigen in supernatant of the cultivated medium was determined by enzyme-linked immunosorbent assay (ELISA) and defined as degree of HIV-1 infection.

HIV-1 [2] = assay: Inhibitory Effect on HIV-1 Infection to MAGI^- CCR5 Cell; type: cell-based, HIV-1 BA-L; conditions: MAGI-CCR5 cells, 2 days
Experimental: The plasmid where β-galactosidase gene was ligated downstream of HIV-1 LTR was introduced into CD4 positive HeLa cell, to which human CCR5 was further introduced to obtain transformant MAGI^- CCR5. By using said transformant MAGI^- CCR5, degree of HIV-1 infection was calculated from β-galactosidase activity (blue color due to decomposition of 5-bromo-4-chloro-3-indolyl-β-D-galactopyranoside).
Specifically, MAGI-CCR5 cells were suspended in DMEM medium containing 10% serum to prepare 5×10^4 cells/ml suspension. To each well of 96 well plate was inoculated 200 μl of the suspension, and the cells were cultivated at 37° C. overnight. The medium was removed by means of suction, and to the residue was added 100 μl of the above medium containing 1.6μM of Test Compound 96 or 0.064 μM of Test Compound 248 and 100 μl of the above medium containing 300 PFU of HIV-1 BA-L cells. The cells were cultivated at 37° C. for 2 days. The medium was removed by means of suction. To the residue was added 200 μl of cell fixative (PBS containing 1% formaldehyde and 0.2% glutaraldehyde), and the mixture was allowed to stand at room temperature for 5 minutes and washed twice with PBS. […] The number of blue cells was counted by microscope and defined as the number of cells infected with HIV-1.

T1 sequence (P51681 whole entry): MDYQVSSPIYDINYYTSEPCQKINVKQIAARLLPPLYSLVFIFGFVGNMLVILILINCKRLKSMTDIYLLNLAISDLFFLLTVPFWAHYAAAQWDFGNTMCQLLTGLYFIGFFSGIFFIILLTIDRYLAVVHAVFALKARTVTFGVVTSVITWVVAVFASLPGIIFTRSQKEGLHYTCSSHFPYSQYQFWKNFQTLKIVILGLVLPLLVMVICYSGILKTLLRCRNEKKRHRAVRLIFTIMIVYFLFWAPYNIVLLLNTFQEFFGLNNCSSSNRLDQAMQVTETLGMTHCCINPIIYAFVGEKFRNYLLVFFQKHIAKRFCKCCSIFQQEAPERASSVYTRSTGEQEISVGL

## CC(C)(C)c1ccc(-c2ccc3c(c2)C=C(C(=O)Nc2ccc(CP4(=O)CCCCC4)cc2)CCO3)cc1 [Compound 180, N-(4-(pentamethylene)phosphorylmethyl-phenyl)-7-(4-tert-butylphenyl)-2,3-dihydro-1-benzoxepine-4-carboxamide]
Human CCR5
  inhibition at 1 µM: 99%

## Cc1ccc(-c2ccc3c(c2)C=C(C(=O)Nc2ccc(CC[N+]4(C)CCCCC4)cc2)CCO3)cc1 [Compound 100, N-((7-(4-methylphenyl)-2,3-dihydro-1-benzoxepin-4-carbonyl)-2-(4-aminophenyl)ethyl)-N-methylpiperidinium iodide]
Human CCR5
  inhibition at 1 µM: 100%

## Cc1ccc(-c2ccc(/C=C/C(=O)Nc3ccc(CP4(=O)CCCCC4)cc3)s2)cc1 [Compound 209, (E)-N-(4-pentamethylenephosphorylmethylphenyl)-3-[5-(4-methylphenyl)-thiophen-2-yl]acrylic amide]
Human CCR5
  inhibition at 1 µM: 80%

## Cc1ccc(-c2ccc3c(c2)C=C(C(=O)Nc2ccc(C[N+]4(C)CCCCC4)cc2)CCC3)cc1 [Compound 92, 1-(N-(2-(4-methylphenyl)-6,7-dihydro-5H-benzocycloheptene-8-carbonyl)-4-aminobenzyl)-1-methylpiperidinium iodide]
Human CCR5
  inhibition at 1 µM: 100%

## Cc1ccc(-c2ccc3c(c2)C=C(C(=O)Nc2ccc(CN(C)C4CCOCC4)cc2)CCO3)cc1 [Compound 128, N-(4-(N-methyl-(N-tetrahydropyran-4-yl)aminomethyl)-phenyl)-7-(4-methylphenyl)-2,3-dihydro-1-benzoxepine-4-carboxamide]
Human CCR5
  inhibition at 1 µM: 87%

## Cc1ccc(-c2ccc3c(c2)C=C(C(=O)Nc2ccc(C[N+]4(C)CCCCC4)cc2)CCO3)cc1 [Compound 96, 1-(N-(7-(4-methylphenyl)-2,3-dihydro-1-benzoxepin-4carbonyl)-4-aminobenzyl)-1-methylpiperidinium iodide]
HIV-1 [1]; same amount of solution containing 2.0 μM Test Compound 96 added
  inhibition rate on HIV-1 infection: 96%
Human CCR5
  inhibition at 1 µM: 93%
HIV-1 [2]; 100 μl medium containing 1.6 μM Test Compound 96 plus 100 μl medium with 300 PFU HIV-1 BA-L
  inhibition rate on HIV-1 infection: 92%

## Cc1ccc(-c2ccc3c(c2)C=C(C(=O)Nc2ccc(C[N+](C)(C)C4CCC(=O)CC4)cc2)CCO3)cc1 [Compound 249, N,N-dimethyl-N-(4-(((7-(4-methylphenyl)-2,3-dihydro-1-benzoxepin-4-yl)carbonyl)amino)benzyl)-N-(4-oxocyclohexyl)ammoniumchloride]
Human CCR5
  inhibition at 1 µM: 96%

## Cc1ccc(-c2ccc3c(c2)C=C(C(=O)Nc2ccc(C[N+]4(C)CCCCC4)cc2)CCO3)cc1 [Compound 97, 1-(N-(7-(4-methylphenyl)-2,3-dihydro-1-benzoxepin-4-carbonyl)-4-aminobenzyl)-1-methylpiperidinium chloride]
Human CCR5
  Inhibition Rate (%) to CCR5 binding: 94%

## Cc1ccc(-c2ccc3c(c2)C=C(C(=O)Nc2ccc(C[N+]4(C)CCCCC4)cc2)CC3)cc1 [Compound 16, 1-methyl-1-[4-[7-(4-methylphenyl)-3,4-dihydronaphthalene-2-carboxamido]benzyl]piperidinium iodide]
Human CCR5
  inhibition at 1 µM: 88%

## CCOc1ccc(-c2ccc3c(c2)C=C(C(=O)Nc2ccc(C[N+](C)(C)C4CCOCC4)cc2)CCO3)cc1 [Compound 250, N-(4-(((7-(4-ethoxyphenyl)-2,3-dihydro-1-benzoxepin-4-yl)carbonyl)amino)benzyl)-N,N-dimethyl-N-(4-tetrahydropyranyl)ammonium chloride]
Human CCR5
  inhibition at 1 µM: 96%

## Cc1ccc(-c2ccc3c(c2)C=C(C(=O)Nc2ccc(CP4(=O)OCCCO4)cc2)CCO3)cc1 [Reference Example 51, 2-(4-(7-(4-methylphenyl)-2,3-dihydro-1-benzoxepin-4-carbonylamino)benzyl)-1,3,2-dioxaphosphorinane-2-oxide]
Human CCR5
  inhibition at 1 µM: 73%

## Cc1ccc(-c2ccc3c(c2)C=C(C(=O)Nc2ccc(C[N+](C)(C)C4CCOCC4)cc2)CCC3)cc1 [Compound 248, N,N-dimethyl-N-(4-(((2-(4-methylphenyl)-6,7-dihydro-5H-benzocyclohepten-8-yl)carbonyl)amino)benzyl)-N-(4-tetrahydropyranyl)ammonium chloride]
HIV-1 [1]; same amount of solution containing 0.32 μM Test Compound 248 added
  inhibition rate on HIV-1 infection: 74%
Human CCR5
  inhibition at 1 µM: 99%
HIV-1 [2]; 100 μl medium containing 0.064 μM Test Compound 248 plus 100 μl medium with 300 PFU HIV-1 BA-L
  inhibition rate on HIV-1 infection: 100%
